From PMC6212553, “Baicalein Enhances the Oral Bioavailability and Hepatoprotective Effects of Silybin Through the Inhibition of Efflux Transporters BCRP and MRP2” (Frontiers in Pharmacology, 2018)
Each block holds one molecule with its values, some of them ahead of it.

Assays:
MRP2 = target: T1, MRP2 (Homo sapiens, UniProt Q92887); assay: Bidirectional transport of CDCFDA in MDCKII-MRP2 cells; type: cell-based
T1 construct: host or cells: MDCK II (canine kidney) cells transfected with MRP2
Protocol: Human colon epithelial cell line (Caco-2) was purchased from American Type Culture Collection (Manassas, VA, United States) and frozen at -80°C. Wild type MDCK II, MDR1-MDCK II, BCRP-MDCK II, and MRP2-MDCK II cells were kindly supplied by the Netherlands Cancer Institute (Amsterdam, Netherlands). Transport study was carried out with Caco-2 cells, and MDCK II cells were transfected using a previously established method with slight modifications ([Yuan et al., 2017]). The Caco-2 cells were cultured at 37°C/5% CO2 in Dulbecco’s modified Eagle’s medium (DMEM) supplemented with 10% fetal bovine serum, 1% nonessential amino acids, and 1% penicillin-streptomycin. […]
Bidirectional transport assays for Caco-2 and MDCK II cells were performed by adding silybin (10 μM) in assay buffer into either the apical (AP; A-to-B) or basolateral (BL; B-to-A) chamber, and each 100 μl sample was collected at 30, 60, 90, 120, and 180 min. […] The fluorescence intensity of the sample collected from the AP or BL side was immediately detected in a 96-well black plate by the Microplate UV/VIS spectrophotometer (TECAN Infinite M200 PRO, Männedorf, Switzerland). […]
(§1) where dQ/dt (mM/s) represents the rate of permeation of the drug across the cells, C0 (mM) refers to the concentration in the donor compartment at time zero calculated from dosing solution, and A (cm^2) refers to the area of the cell monolayer. […]

[1] = tested on: sandwich-cultured rat hepatocytes; assay: Biliary excretion in sandwich-cultured rat hepatocytes (SCH); type: in vitro ADME
Protocol: Sandwich-cultured rat hepatocytes (SCHs) model was established based on a previously described method with minor modifications ([Swift et al., 2010]). In brief, primary rat hepatocytes were prepared from male Sprague Dawley (SD) rats (220–270 g) using collagenase perfusion as described previously ([Liu et al., 1999]) and then were plated on 6-well plates at a density of 7.4 × 10^5 cells/2 ml/well. Approximately 24 h later, hepatocytes were overlaid with 2 ml of BD Matrigel basement membrane matrix in DMEM (0.25 mg/ml) containing 1% (v/v) insulin/transferrin/selenium culture supplement, […], 2 mM L-glutamine, and 1% penicillin-streptomycin. Hepatocytes were cultured for 4 days with daily medium replacements until the canalicular network was extensively formatted between the cells before the experiment. Evaluation of biliary excretion in SCHs was carried out according to a previously described method ([Liu et al., 1999]). […] Samples were quantified by LC-MS/MS analysis, and the transport function was normalized to the protein content of the hepatocytes. […] Later, the residues were reconstituted with 60 μl of 30% methanol in water containing 1% ascorbic acid, and an aliquot of 10 μl of final solution after centrifugation was analyzed by LC-MS/MS. […] The quantitative linear range for silybin A and B was 5 to 12500 ng/ml.

MDR1 = target: T2, MDR1 (Homo sapiens, UniProt P08183); assay: Bidirectional transport of Rho123 in MDCKII-MDR1 cells; type: cell-based; conditions: dog, MDCK-MDR1, absence of inhibitor
T2 construct: host or cells: MDCK II (canine kidney) cells transfected with MDR1
T2 sequence (P08183 whole entry): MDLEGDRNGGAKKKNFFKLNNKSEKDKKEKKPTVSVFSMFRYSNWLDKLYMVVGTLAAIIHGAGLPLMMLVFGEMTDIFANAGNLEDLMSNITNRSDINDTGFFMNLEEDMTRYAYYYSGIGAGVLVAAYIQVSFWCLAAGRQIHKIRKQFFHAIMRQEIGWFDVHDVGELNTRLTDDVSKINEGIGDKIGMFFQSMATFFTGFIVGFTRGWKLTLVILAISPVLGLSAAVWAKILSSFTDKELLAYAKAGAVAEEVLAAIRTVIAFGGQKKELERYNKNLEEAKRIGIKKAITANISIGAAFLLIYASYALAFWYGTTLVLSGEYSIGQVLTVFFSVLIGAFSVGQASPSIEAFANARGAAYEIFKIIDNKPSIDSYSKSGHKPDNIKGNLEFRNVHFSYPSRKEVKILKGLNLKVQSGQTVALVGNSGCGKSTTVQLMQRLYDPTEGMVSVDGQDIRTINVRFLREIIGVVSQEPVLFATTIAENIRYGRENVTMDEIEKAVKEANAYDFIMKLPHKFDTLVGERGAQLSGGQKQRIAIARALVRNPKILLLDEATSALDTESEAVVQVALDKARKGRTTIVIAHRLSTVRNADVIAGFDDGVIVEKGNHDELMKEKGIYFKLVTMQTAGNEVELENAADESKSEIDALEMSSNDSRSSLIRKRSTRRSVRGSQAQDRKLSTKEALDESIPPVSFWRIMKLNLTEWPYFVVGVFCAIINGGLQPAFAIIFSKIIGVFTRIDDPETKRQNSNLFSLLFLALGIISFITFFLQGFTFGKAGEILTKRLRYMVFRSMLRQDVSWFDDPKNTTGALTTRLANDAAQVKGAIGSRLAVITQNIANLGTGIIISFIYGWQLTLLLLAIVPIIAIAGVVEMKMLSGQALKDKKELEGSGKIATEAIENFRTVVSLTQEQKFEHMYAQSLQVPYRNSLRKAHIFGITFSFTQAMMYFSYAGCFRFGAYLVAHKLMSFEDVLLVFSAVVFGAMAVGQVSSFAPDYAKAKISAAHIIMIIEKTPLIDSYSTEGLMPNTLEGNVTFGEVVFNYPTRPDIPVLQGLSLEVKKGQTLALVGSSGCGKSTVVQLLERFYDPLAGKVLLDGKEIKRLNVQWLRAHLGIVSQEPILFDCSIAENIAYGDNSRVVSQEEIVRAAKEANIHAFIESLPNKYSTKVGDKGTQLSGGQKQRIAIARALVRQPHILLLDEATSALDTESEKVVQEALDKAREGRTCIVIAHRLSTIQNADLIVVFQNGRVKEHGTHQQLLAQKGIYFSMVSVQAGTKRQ
Protocol: (§2) Human colon epithelial cell line (Caco-2) was purchased from American Type Culture Collection (Manassas, VA, United States) and frozen at -80°C. Wild type MDCK II, MDR1-MDCK II, BCRP-MDCK II, and MRP2-MDCK II cells were kindly supplied by the Netherlands Cancer Institute (Amsterdam, Netherlands). […] The Caco-2 cells were cultured at 37°C/5% CO2 in Dulbecco’s modified Eagle’s medium (DMEM) supplemented with 10% fetal bovine serum, 1% nonessential amino acids, and 1% penicillin-streptomycin. The Caco-2 cells were seeded onto polyester filter membranes in a 12-well Transwell® plate (Corning Costar Co., NY, United States) with 0.6 × 10^5 cells/cm^2. […]
(§3) For inhibition studies, Caco-2 or MDCK II cell monolayers in both apical and basolateral chambers were preincubated with the inhibitor for 30 min. The fluorescence intensity of the sample collected from the AP or BL side was immediately detected in a 96-well black plate by the Microplate UV/VIS spectrophotometer (TECAN Infinite M200 PRO, Männedorf, Switzerland). […]
as §1, with “monolayer. Papp (B-A) is the Papp value measured in the B to A direction, and Papp (A-B) is the Papp value measured in the A to B direction.” for “monolayer.”

Caco-2 cells = assay: Bidirectional transport of silybin across Caco-2 cell monolayers; type: in vitro ADME, Human; conditions: Caco-2 monolayers, silybin 10 μM
Protocol: Human colon epithelial cell line (Caco-2) was purchased from American Type Culture Collection (Manassas, VA, United States) and frozen at -80°C. Wild type MDCK II, MDR1-MDCK II, BCRP-MDCK II, and MRP2-MDCK II cells were kindly supplied by the Netherlands Cancer Institute (Amsterdam, Netherlands). Transport study was carried out with Caco-2 cells, and MDCK II cells were transfected using a previously established method with slight modifications ([Yuan et al., 2017]). The Caco-2 cells were cultured at 37°C/5% CO2 in Dulbecco's modified Eagle's medium (DMEM) supplemented with 10% fetal bovine serum, 1% nonessential amino acids, and 1% penicillin-streptomycin. The Caco-2 cells were seeded onto polyester filter membranes in a 12-well Transwell® plate (Corning Costar Co., NY, United States) with 0.6 × 10^5 cells/cm^2. The monolayer cells were used for transport assays between 21 and 23 days. The MDCKII cells were seeded on transwell plates with a density of 2.0 × 10^5 cells/cm^2 and grown for 4-5 days to form a confluent monolayer. Bidirectional transport assays for Caco-2 and MDCK II cells were performed by adding silybin (10 μM) in assay buffer into either the apical (AP; A-to-B) or basolateral (BL; […] For inhibition studies, Caco-2 or MDCK II cell monolayers in both apical and basolateral chambers were preincubated with the inhibitor for 30 min. The fluorescence intensity of the sample collected from the AP or BL side was immediately detected in a 96-well black plate by the Microplate UV/VIS spectrophotometer (TECAN Infinite […], Männedorf, Switzerland). For liquid chromatography tandem-mass spectrometry (LC-MS/MS) analysis, the sample (100 μl) was mixed with methanol (50 μl) containing internal standard (25 ng/ml) and was stored at -80°C. The formula for calculating apparent permeability coefficient (Papp) values is as follows: (1) […] where dQ/dt (mM/s) represents the rate of permeation of the drug across the cells, C0 (mM) refers to the concentration in the donor compartment at time zero calculated from dosing solution, and A (cm^2) refers to the area of the cell monolayer. Papp (B-A) is the Papp value measured in the B to A direction, and Papp (A-B) is the Papp value measured in the A to B direction. The efflux ratio is given as ER = Papp (B to A)/Papp (A to B).

[2] = tested on: CCl4-induced liver injury model; assay: CCl4-induced acute liver injury in rats; type: in vivo, SD rats; parameters: Nerosis (histologic score, liver H&E) / Haemorrhage (histologic score, liver H&E) / Inflammation (histologic score, liver H&E) / Steatosis (histologic score, liver H&E): scale not given here
Protocol: Male SD rats were randomly divided into seven groups: […] (2) Group II, given blank vehicle p.o. for 7 days; (3) Group III, treatment with silybin (100 mg/kg bodyweight, p.o.) for 7 days; […] After 24 h of CCl4 treatment, all rats were sacrificed under ether anesthesia. Blood samples were collected from the abdominal aorta for biochemical estimations. The liver was immediately removed and weighed with a large portion of the liver frozen in liquid nitrogen. The pathological liver changes were examined by hematoxylin and eosin (H&E) staining, which was performed by a pathologist who was blinded to this study. The serum levels of ALT, AST, AKP, and SOD as well as the cytokines TNF- α, IL-6, and IL-1β were detected by the assay kit, according to the manufacturer’s instructions.

[3] = ref Lai et al., 2003, cited from earlier work
BCRP = target: T3, BCRP (Homo sapiens, UniProt Q9UNQ0); assay: Bidirectional transport of pheophorbide A in MDCKII-BCRP cells; type: cell-based; conditions: dog, absence of inhibitor
T3 construct: host or cells: MDCK II (canine kidney) cells transfected with BCRP
T3 sequence (Q9UNQ0 1-655): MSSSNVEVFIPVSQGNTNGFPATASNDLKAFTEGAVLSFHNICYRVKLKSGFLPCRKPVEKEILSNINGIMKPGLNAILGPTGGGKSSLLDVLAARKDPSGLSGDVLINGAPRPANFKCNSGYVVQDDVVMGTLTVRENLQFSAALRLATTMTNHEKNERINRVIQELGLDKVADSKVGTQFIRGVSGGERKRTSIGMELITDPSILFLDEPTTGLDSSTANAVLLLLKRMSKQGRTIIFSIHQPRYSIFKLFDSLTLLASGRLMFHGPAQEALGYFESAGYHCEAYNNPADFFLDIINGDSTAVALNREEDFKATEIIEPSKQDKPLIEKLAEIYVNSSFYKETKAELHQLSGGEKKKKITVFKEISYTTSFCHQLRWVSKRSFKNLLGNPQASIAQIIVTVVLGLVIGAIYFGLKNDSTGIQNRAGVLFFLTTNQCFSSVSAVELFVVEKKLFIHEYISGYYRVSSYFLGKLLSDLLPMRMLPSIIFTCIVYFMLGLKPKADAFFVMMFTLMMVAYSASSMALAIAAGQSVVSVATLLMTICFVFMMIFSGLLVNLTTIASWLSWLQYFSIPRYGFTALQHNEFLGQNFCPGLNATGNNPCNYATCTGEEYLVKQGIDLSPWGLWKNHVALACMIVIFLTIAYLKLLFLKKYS
Protocol: as §2, §3
as §1, with “monolayer. Papp (B-A) is the Papp value measured in the B to A direction, and Papp (A-B) is the Papp value measured in the A to B direction.” for “monolayer.”

[4] = 100 mg/kg p.o. 7 days, single agent, CCl4 on day 7

T1 sequence (Q92887 whole entry): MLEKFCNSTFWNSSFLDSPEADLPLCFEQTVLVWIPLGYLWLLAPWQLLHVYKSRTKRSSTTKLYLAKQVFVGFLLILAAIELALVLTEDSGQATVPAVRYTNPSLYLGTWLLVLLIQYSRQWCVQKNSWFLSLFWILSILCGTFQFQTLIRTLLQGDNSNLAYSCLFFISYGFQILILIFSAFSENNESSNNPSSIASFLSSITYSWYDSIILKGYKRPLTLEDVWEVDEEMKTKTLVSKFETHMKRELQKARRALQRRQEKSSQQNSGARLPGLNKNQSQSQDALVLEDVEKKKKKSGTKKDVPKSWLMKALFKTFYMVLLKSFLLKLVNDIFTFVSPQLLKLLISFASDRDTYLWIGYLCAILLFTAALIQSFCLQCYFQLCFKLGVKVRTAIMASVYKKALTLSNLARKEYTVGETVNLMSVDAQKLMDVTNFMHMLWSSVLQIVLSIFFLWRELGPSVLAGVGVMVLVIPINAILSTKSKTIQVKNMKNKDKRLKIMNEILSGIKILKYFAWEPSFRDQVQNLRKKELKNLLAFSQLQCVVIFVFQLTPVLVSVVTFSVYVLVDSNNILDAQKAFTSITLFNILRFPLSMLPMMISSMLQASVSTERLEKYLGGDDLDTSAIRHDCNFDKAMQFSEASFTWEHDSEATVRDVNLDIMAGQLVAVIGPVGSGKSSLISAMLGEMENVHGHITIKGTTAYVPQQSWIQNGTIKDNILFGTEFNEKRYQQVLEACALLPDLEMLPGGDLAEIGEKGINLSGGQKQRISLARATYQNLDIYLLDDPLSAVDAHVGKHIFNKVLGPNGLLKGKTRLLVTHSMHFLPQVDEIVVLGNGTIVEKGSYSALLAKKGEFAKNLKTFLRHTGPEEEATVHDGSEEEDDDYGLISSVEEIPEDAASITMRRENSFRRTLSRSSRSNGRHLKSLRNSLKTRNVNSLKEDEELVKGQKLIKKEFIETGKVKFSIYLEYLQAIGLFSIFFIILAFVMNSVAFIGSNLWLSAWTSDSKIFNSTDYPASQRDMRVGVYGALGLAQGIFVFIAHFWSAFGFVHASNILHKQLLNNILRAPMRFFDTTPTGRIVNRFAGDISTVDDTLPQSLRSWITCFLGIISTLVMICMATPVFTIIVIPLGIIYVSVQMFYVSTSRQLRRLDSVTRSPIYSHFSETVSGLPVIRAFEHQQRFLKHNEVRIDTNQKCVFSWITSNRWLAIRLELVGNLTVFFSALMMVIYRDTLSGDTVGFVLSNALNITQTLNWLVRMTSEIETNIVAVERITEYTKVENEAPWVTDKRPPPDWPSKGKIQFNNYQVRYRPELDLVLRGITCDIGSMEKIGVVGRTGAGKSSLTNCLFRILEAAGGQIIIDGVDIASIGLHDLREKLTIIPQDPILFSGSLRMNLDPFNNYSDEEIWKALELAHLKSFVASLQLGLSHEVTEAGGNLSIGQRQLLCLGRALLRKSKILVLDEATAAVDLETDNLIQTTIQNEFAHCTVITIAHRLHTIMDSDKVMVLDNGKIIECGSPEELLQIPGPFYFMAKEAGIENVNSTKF

- efflux ratio of CDCFDA (MRP2): 3.82 ± 0.51
Molecule: 5(6)-Carboxy-2′,7′-dichlorofluorescein diacetate [CDCFDA]

- efflux ratio at 180 min (MDR1): 3.68 ± 0.44
Molecule: COC(=O)c1ccccc1-c1c2ccc(=N)cc-2oc2cc(N)ccc12 [Rho123, Rhodamine 123]

- efflux ratio at 180 min (BCRP): 2.82 ± 0.13
Molecule: C=Cc1c(C)c2cc3nc(c4c5[nH]c(cc6nc(cc1[nH]2)C(C)=C6CC)c(C)c5C(=O)[C@@H]4C(=O)OC)[C@@H](CCC(=O)O)[C@@H]3C [pheophorbide A]

Further lines, the molecule ahead of its results:

Molecule: CN(C)C(=O)CCSC(SCCC(=O)O)c1cccc(/C=C/c2ccc3ccc(Cl)cc3n2)c1 (centres unmarked) [MK571]
- effect on biliary excretion of silybin and its conjugates ([1]; MK571 50 μM, positive control): significantly inhibited

Molecule: O=c1cc(-c2ccccc2)oc2cc(O)c(O)c(O)c12 [baicalein, 5,6,7-trihydroxyflavone]
- lowest effective dosage inhibiting efflux transport of silybin (Caco-2 cells): 0.5 µM
- reduction of the biliary excretion of silybin conjugates ([1]; baicalein 25 μM): ~90%
- Haemorrhage (histologic score, liver H&E) [2, 4]: 2.2±0.4
- Inflammation (histologic score, liver H&E) [2, 4]: 2.2±0.8
- Nerosis (histologic score, liver H&E) [2, 4]: 3.0±0.6
- Steatosis (histologic score, liver H&E) [2, 4]: 2.3±0.8
- protection of liver injury by baicalein itself ([2]; CCl4-induced acute liver injury model): failed to show significant benefits
- glucuronides/sulfates of baicalein in the plasma or cell ([3]; after oral administration or dosing in the Caco-2 cell model, Li et al., 2012): 75.7%
- absolute absorption ([3]; passive diffusion): 40%

Molecule: O=C(O)[C@H]1O[C@@H](Oc2cc3oc(-c4ccccc4)cc(=O)c3c(O)c2O)[C@H](O)[C@@H](O)[C@@H]1O [baicalin]
- relative absorption compared with baicalein ([3]; after oral administration): 65%
